Here are results for one compound from BindingDB's records for doi:10.1016/j.bioorg.2005.08.001 (Texas A&M University, 2005).

pKi: −log10 of the molar value.

For this assay, the target named is T1, Dihydroorotase (Escherichia coli (strain K12), UniProt P05020).
T1 sequence (P05020 whole entry): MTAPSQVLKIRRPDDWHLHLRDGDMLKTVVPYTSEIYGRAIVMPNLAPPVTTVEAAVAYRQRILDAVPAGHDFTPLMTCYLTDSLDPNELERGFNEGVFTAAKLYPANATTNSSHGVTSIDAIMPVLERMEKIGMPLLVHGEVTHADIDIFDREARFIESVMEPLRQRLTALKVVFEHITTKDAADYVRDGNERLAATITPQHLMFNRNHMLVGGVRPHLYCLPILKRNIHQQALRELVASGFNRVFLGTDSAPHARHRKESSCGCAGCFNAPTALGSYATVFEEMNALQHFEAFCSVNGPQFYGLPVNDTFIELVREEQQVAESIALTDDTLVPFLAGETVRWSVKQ
The experiment in a line: Inhibition Assay. The following applies: pH 7. The source says:
The DHO-catalyzed hydrolysis of dihydrooroate was monitored spectrophotoetrically at 230 and 280 nm using a SPECTRAmax (Molecular Device) plate reader.

With `O=C1CC(=O)N[C@H](C(=O)O)C1` [4,6-dioxo-piperidine-2-carboxylic acid, 3], the negative logarithm of the Ki (pKi) was 1.12.
